The subject of test [1] is breast cancer cell line MX-1. Briefly: MX-1 cell line proliferation assay, Method B. The class given is cell-based. As to conditions: Homo sapiens, MX1; MX-1 cells, 384-well, 72 hours, Cell Titer Glo; read-out: Cellular proliferation: EC50 Method B. Here is the method:
The impact of compounds of the Examples on cancer cell proliferation was determined using the breast cancer cell line MX-1 (ATCC) in a 3-day proliferation assay and the data are reported in Table 1.
Method B: MX-1 cells were maintained in RPMI 1640 medium (Sigma) supplemented with 10% FBS at 37 C.° and an atmosphere of 5% CO2. For compound testing, MX-1 cells were plated in 384-well white with clear, flat bottom plates at a density of 750 cells/well in 25 μL of culture media and incubated at 370 overnight to allow cell adhesion and spreading. Ten point compound dilution series were prepared in DMSO via a 3-fold serial dilution from either […] or 1 μM stock and added directly to the appropriate wells of the MX-1 cell plate by an ECHO liquid handler (Labcyte). The final compound concentrations in the wells were 10, 3.25, 1, 0.25, 0.124, 0.040, 0.0124, 0.0031, 0.0015 and 0.0005 μM or 1, 0.33, 0.1, 0.025, 0.0124, 0.004, 0.0012, 0.0003, 0.00015, 0.00005 μM, depending on the concentration of the compound stock solution.
Luminescence readings from the Cell Titer Glo assay were normalized to the DMSO treated cells and analyzed using Accelrys Assay Explorer 3.3 software with sigmoidal curve fitting to obtain ECsos. The minimum significant ratio (MSR) was determined to evaluate assay reproducibility (Eastwood et al., (2006) J Biomol Screen, 11: 253-261). The overall MSR was determined to be 3.3 and a moving MSR (last six run MSR overtime) has averaged
For orientation: Cellular ATP, detected with luciferase, serves as a proxy for viable cell number.

The target in a further test is BRD4 (BDII_E352-M457) (Homo sapiens (Human), UniProt O60885). Briefly: TR-FRET bromodomain binding assay, BRD4 second bromodomain. The following applies: His-tagged BD2, Alexa647-labeled probe 30 nM. Summed up:
(§1)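 His-tagged bromodomain (8 nM) was incubated 1 h at room temperature with Eu-anti-His antibody (1 nM), Alexa647-labeled BET-inhibitor probe (100 nM for BDI, 30 nM for BDII) and compound (50 μM-0.85 nM, 2% DMSO) in pH 6.0 phosphate buffer. TR-FRET ratio read; IC50 from 4-parameter fit converted to Ki using probe Kd.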
For orientation: In TR-FRET formats the signal depends on donor and acceptor labels being close together.

A further test addresses BRD4 (BDI_K57-E168) (Homo sapiens (Human), UniProt O60885). Briefly: TR-FRET bromodomain binding assay, BRD4 first bromodomain. The following applies: His-tagged BD1, Alexa647-labeled probe 100 nM. The essentials: as §1

Structures are written as SMILES. A value given as a limit tells only on which side of the number the result lay.

We go through eight compounds from patent US9957263B2, “Bromodomain inhibitors” (AbbVie Inc., priority 2013, dated 2018).

What is called Ki is a measure of affinity in units of concentration, obtained from inhibition or displacement. Read a high Ki as lower affinity.

In the case of `CCNC(=O)c1cc2c(-c3ccc(C(=O)N(CCN(C)C)c4ccccc4)cc3Oc3c(C)cccc3C)cn(C)c(=O)c2[nH]1` [Example 179, 4-[4-{[2-(dimethylamino)ethyl](phenyl)carbamoyl}-2-(2,6-dimethylphenoxy)phenyl]-N-ethyl-6-methyl-7-oxo-6,7-dihydro-1H-pyrrolo[2,3-c]pyridine-2-carboxamide], the EC50 in test [1] is 0.991 µM. Besides, the Ki is 0.00824 µM on BRD4 (BDII_E352-M457) and 1.58 µM at BRD4 (BDI_K57-E168).
The like results for `CCNC(=O)c1cc2c(-c3ccc(C(=O)N(CCCC(=O)OCC)c4ccccc4)cc3Oc3c(C)cccc3C)cn(C)c(=O)c2[nH]1` [Example 180, ethyl 4-[{3-(2,6-dimethylphenoxy)-4-[2-(ethylcarbamoyl)-6-methyl-7-oxo-6,7-dihydro-1H-pyrrolo[2,3-c]pyridin-4-yl]benzoyl}(phenyl)amino]butanoate] were, in that order, 6.06 µM, 0.0308 µM and 8.61 µM.
For `CCNC(=O)c1cc2c(-c3ccc(C(=O)N(CCN(C)C)c4ccccn4)cc3Oc3c(C)cccc3C)cn(C)c(=O)c2[nH]1` [Example 181, 4-[4-{[2-(dimethylamino)ethyl](pyridin-2-yl)carbamoyl}-2-(2,6-dimethylphenoxy)phenyl]-N-ethyl-6-methyl-7-oxo-6,7-dihydro-1H-pyrrolo[2,3-c]pyridine-2-carboxamide], in that order: 3.98 µM, 0.00918 µM and 1.73 µM.
The like results for `CCNC(=O)c1cc2c(-c3ccc(C(=O)N(CCN(CC)CC)c4ccccc4)cc3Oc3c(C)cccc3C)cn(C)c(=O)c2[nH]1` [Example 182, 4-[4-{[2-(diethylamino)ethyl](phenyl)carbamoyl}-2-(2,6-dimethylphenoxy)phenyl]-N-ethyl-6-methyl-7-oxo-6,7-dihydro-1H-pyrrolo[2,3-c]pyridine-2-carboxamide] were, in that order, 2.12 µM, 0.00606 µM and 0.921 µM.
For `CCNC(=O)c1cc2c(-c3ccc(C(=O)N(CC#N)c4ccc(OC)cc4)cc3Oc3c(C)cccc3C)cn(C)c(=O)c2[nH]1` [Example 183, 4-{4-[(cyanomethyl)(4-methoxyphenyl)carbamoyl]-2-(2,6-dimethylphenoxy)phenyl}-N-ethyl-6-methyl-7-oxo-6,7-dihydro-1H-pyrrolo[2,3-c]pyridine-2-carboxamide], the EC50 in test [1] was determined as 1.48 µM. Also, the values for the Ki at BRD4 (BDII_E352-M457) and at BRD4 (BDI_K57-E168) were 0.0141 µM and 2.8 µM, respectively.
For `CCCCN(CCC#N)C(=O)c1ccc(-c2cn(C)c(=O)c3[nH]c(C(=O)NCC)cc23)c(Oc2c(C)cccc2C)c1` [Example 184, 4-{4-[butyl(2-cyanoethyl)carbamoyl]-2-(2,6-dimethylphenoxy)phenyl}-N-ethyl-6-methyl-7-oxo-6,7-dihydro-1H-pyrrolo[2,3-c]pyridine-2-carboxamide], in that order: 2.84 µM, 0.0111 µM and 1.08 µM.
As for `CCNC(=O)c1cc2c(-c3ccc(C(=O)N(CCN(C)C)c4ccnc(F)c4)cc3Oc3c(C)cccc3C)cn(C)c(=O)c2[nH]1` [Example 185, 4-[4-{[2-(dimethylamino)ethyl](2-fluoropyridin-4-yl)carbamoyl}-2-(2,6-dimethylphenoxy)phenyl]-N-ethyl-6-methyl-7-oxo-6,7-dihydro-1H-pyrrolo[2,3-c]pyridine-2-carboxamide], the EC50 in test [1] was 2.72 µM. Also, the values for the Ki on BRD4 (BDII_E352-M457) and on BRD4 (BDI_K57-E168) were 0.0143 µM and 2.94 µM, respectively.
For `CCNC(=O)c1cc2c(-c3ccc(C(=O)N(c4ccccc4)C4CCCCC4)cc3Oc3c(C)cccc3C)cn(C)c(=O)c2[nH]1` [Example 186, 4-{4-[cyclohexyl(phenyl)carbamoyl]-2-(2,6-dimethylphenoxy)phenyl}-N-ethyl-6-methyl-7-oxo-6,7-dihydro-1H-pyrrolo[2,3-c]pyridine-2-carboxamide], in that order: 7.65 µM, 0.178 µM and > 12.7 µM.
